Measurements as given in US11433086B2, “Combination of T-cell checkpoint inhibitors with inhibitors of e-selectin or CXCR4, or with heterobifunctional inhibitors of both E-selectin and CXCR4” (GlycoMimetics, Inc., priority 2016, dated 2022).

How the values were obtained:
[1] = test system: T-Cells (CD4+ and CD8+), Tregs, MDSCs and checkpoint markers in tumors and spleens; experiment: Flow cytometry immune profile of tumors and spleens, Day 15; type: in vivo, Balb/c mice
Protocol: The anti-cancer activity of an anti-mPD-L1 antibody (10F.9G2) and GMI-1359 was compared to a rat isotype control antibody against indeterminate subcutaneous CT26.WT carcinoma xenografts in female Balb/c mice. An immune profile of each mouse was determined by sampling tumors and spleens, staining for several markers of an active immune response, and detecting the levels of these markers via flow cytometry. Flow cytometry markers included: T-Cells (CD4^+ and CD8^+), Regulatory T-Cells (Tregs). (CD4^+/CD25^+/FoxP3^+), MDSCs (CD11b^+/Gr1^+) and co-expression of CCR7^+ and CD62^+ added to the existing CD4/CD8 panel.
At 24 hours after the final dose of GMI-1359 (Day 15), all mice from Groups 7-12 were euthanized for tumor and spleen collection. All mice were euthanized via over exposure to carbon dioxide. The tumors and spleens were excised and placed in a labeled 5 mL sampling tube filled with cold PBS and placed on ice. The tumors and spleens were provided to the Molecular Imaging's in vitro group for flow cytometric analysis.
For tumor dissociation, the tumor was weighed and <1 g tissue was processed according to Miltenyi Tumor Dissociation Protocol 2.2.1, Dissociation of soft tumors, before proceeding to the red blood cell lysis.
For spleen dissociation, the plunger on a 3 mL syringe was used to crush the spleen in 10 mL DPBS until organ was well broken up and the DPBS became cloudy with cells. The cell suspension was then filtered with a 70 μm strainer on a 50 mL tube and washed with 20 mL DPBS. The suspension was then centrifuged for 7 minutes at 300 rcf and the supernatant was discarded before proceeding the red blood cell lysis.
For the red blood cell lysis, each of the tumor and spleen samples were re-suspended in 3 mL ACK Lysis Buffer and then incubated for 5 minutes at room temperature. The suspension was diluted by adding 10 mL DPBS, and then the cells were collected via centrifugation for 5 minutes at 300 rcf. The cells were again re-suspended in 30 mL DPBS and counted. The suspension was centrifuged again, and the supernatant was discarded before proceeding to the Fc block.
For the Fc block, each of the tumor and spleen samples were re-suspended at 1E+06 cells per 100 μL in Flow Cytometry Staining buffer with 1 μL Fc block per 1E+06 cells. The suspensions were incubated for 5 minutes at room temperature, then centrifuged for 5 minutes at 300 rcf, and the supernatant was removed before proceeding to surface staining.
For the surface staining, the following antibody dilutions were prepared, 50 μL per reaction in Flow Cytometry Staining Buffer (except FoxP3):
For surface staining, the tumor and spleen cells were re-suspended at 1E+06 cells per 50 μL. Each of the 50 μL cell suspensions containing 1E+06 cells was added to 50 μL antibodies diluted in staining buffer in round-bottom 96-well plate. The plate was incubated for 30 minutes in the dark at room temperature on the orbital shaker, setting 2.5. The samples were diluted by adding 200 μL Flow Cytometry Staining Buffer and then centrifuged for 5 minutes at 300 rcf. The supernatant was aspirated and the cells were washed wash by re-suspending in 250 μL Flow Cytometry Staining Buffer and spinning. If staining for intracellular markers, after washing, the sample was then prepared according to the intracellular staining procedure described below. The samples were then re-suspended in 250 μL Flow Cytometry Staining Buffer and were ready for Flow Cytometry Analysis.
When staining for intracellular markers, following the wash step, the cells were re-suspended in 200 μL FoxP3 Fixation/Permeabilization working solution and incubated for 30 minutes in the dark at room temperature. The samples were then centrifuged at 400 rcf for 5 minutes at room temperature, then the supernatant was discarded. 200 μL 1× permeabilization buffer was added to each well. The samples were centrifuged at 400 rcf for 5 minutes at room temperature, then the supernatant was discarded. […]

CXCR4 = target: T1, CXCR4 (Homo sapiens, UniProt P61073); experiment: Flow based competitive binding assay, anti-CXCR4 antibody binding to Raji cells; details: phycoerythrin-conjugated anti-CXCR4 antibody
T1 construct: host or cells: Raji cells
Protocol: FIG. 21 relates to an experiment carried out to determine the competitive binding activity (IC50) of GMI-1359 against E-selectin and CXCR4. GMI-1359 was assessed for inhibition of sialyl Le^X binding to immobilized E-selectin and α-CXCR4 antibody binding to Raji cells.
The inhibition assay to screen GMI-1359 as an antagonist of CXCR4 was a flow based competitive binding assay, which allowed the determination of […] values. Raji cells (ATCC number TIB-152) were washed twice with Hanks Balanced Saline Solution (HBSS) containing 0.05% bovine serum albumin (BSA). After the second wash, the cells were resuspended to about 2.5×10^6 cells per mL and 80 μl of cells (approximately 2×10^5 cells) were added to BD 2063 tubes. Next, 10 μl of either GMI-1359 or HBSS/BSA (as a negative control) were added to the cells and the tube was placed at room temperature for 10 minutes. Then, 10 μl of a phycoerythrin-conjugated anti-CXCR4 antibody (R&D Systems, FAB170P) or as a negative control, 10 μl of an isotype control antibody (R&D Systems, IC003P) was added to the cells with HBSS/BSA. The antibodies were allowed to bind to the cells for 1 hour at 4° C. […] Binding of the anti-CXCR4-PE antibody to the cells was assessed by flow cytometry, and the median fluorescent intensity was determined. […]

T1 sequence (P61073 whole entry): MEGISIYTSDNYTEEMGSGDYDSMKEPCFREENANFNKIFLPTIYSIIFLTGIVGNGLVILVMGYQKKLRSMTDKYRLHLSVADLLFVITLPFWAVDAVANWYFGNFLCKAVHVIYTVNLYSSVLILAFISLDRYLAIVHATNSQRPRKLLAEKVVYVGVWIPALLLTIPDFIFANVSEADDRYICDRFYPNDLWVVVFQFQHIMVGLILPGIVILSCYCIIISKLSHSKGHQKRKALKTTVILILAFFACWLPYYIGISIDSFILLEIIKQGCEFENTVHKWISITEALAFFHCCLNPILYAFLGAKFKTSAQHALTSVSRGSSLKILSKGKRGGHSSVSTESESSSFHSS

CCC1CC(C(=O)NCCNCc2ccc(CN3CCCNCCNCCCNCC3)c(Br)c2)CC(OC2OC(CO)C(O)C(O[C@@H](CC3CCCCC3)C(=O)O)C2NC(C)=O)C1OC1OC(C)C(O)C(O)C1O (stereo partly shown) [GMI-1359]
average percentage of CCR7^+/CD62L^+ cells within the CD8^+ T-cell population in spleens ([1]; spleens, Day 15, Groups 8-12): 1.00% | average percentage of CD4^+ T-cells expressing CCR7 but not CD62L in spleens ([1]; spleens, Day 15, Groups 8-12): 33.36% | average percentage of CD4^+ T-cells expressing CD62L but not CCR7 in spleens ([1]; spleens, Day 15, Groups 8-12): 5.42% | average percentage of CD4^+ T-cells expressing both CCR7 and CD62L in spleens ([1]; spleens, Day 15, Groups 8-12): 2.05% | average percentage of CD4^+ cells in spleens ([1]; spleens, Day 15, Groups 8-12): 13.43% | average percentage of CD8^+ T-cells expressing CCR7 but not CD62L in spleens ([1]; spleens, Day 15, Groups 8-12): 27.95% | average percentage of CD8^+ T-cells expressing CD62L but not CCR7 in spleens ([1]; spleens, Day 15, Groups 8-12): 2.94% | average percentage of CD8^+ cells in spleens ([1]; spleens, Day 15, Groups 8-12): 8.77% | average percentage of MDSCs in spleens ([1]; spleens, Day 15, Groups 8-12): 3.70% | average percentage of Tregs in spleens ([1]; spleens, Day 15, Groups 8-12): 10.00% | average percentage of cells expressing CTLA-4 in spleens ([1]; spleens, Day 15, Groups 8-12): 12.31% | average percentage of cells expressing PD-1 in spleens ([1]; spleens, Day 15, Groups 8-12): 5.53% | average percentage of cells expressing PD-L1 in spleens ([1]; spleens, Day 15, Groups 8-12): 81.50% | percentage of CD4^+/CCR7^+/CD62L^+ cells in spleens, change ([1]; spleens, Day 15, compared to vehicle, GMI-1359 or isotype control antibody, respectively): did not | average percentage of (CD4^+) cells expressing CD62L but not CCR7 in tumors ([1]; tumors, Day 15, Groups 8-12): 31.43% | average percentage of CCR7^+/CD62L^+ cells within the CD8^+ T-cell population in tumors ([1]; tumors, Day 15, Groups 8-12): 25.84% | average percentage of CD4^+ T-cells expressing both CCR7 and CD62L in tumors ([1]; tumors, Day 15, Groups 8-12): 25.32% | average percentage of CD8^+ cells in tumors ([1]; tumors, Day 15, Groups 8-12): 15.61% | average percentage of cells expressing CTLA-4 in tumors ([1]; tumors, Day 15, Groups 8-12): 42.80% | average percentage of cells expressing PD-1 in tumors ([1]; tumors, Day 15, Groups 8-12): 23.39% | average percentage of cells expressing PD-L1 in tumors ([1]; tumors, Day 15, Groups 8-12): 34.44% | average percentage of myeloid-derived suppressor cells (MDSCs) in tumors ([1]; tumors, Day 15, Groups 8-12): 2.66% | average percentage of regulatory T-cells (Tregs) in tumors ([1]; tumors, Day 15, Groups 8-12): 2.93% | detection of CD4^+/CCR7^+/CD62L^− and CD8^+/CCR7^+/CD62L^− populations in tumor samples ([1]; tumors, Day 15, Groups 8-12): Neither CD4^+/CCR7^+/CD62L^− nor CD8^+/CCR7^+/CD62L^− populations were detected | percentage of CD8^+ T-cells expressing CD62L but not CCR7 in tumors ([1]; tumors, Day 15, Groups 8-12): 25.65% | average percentage of CD4^+ cells in tumors ([1]; tumors, Day 15, Groups 8-12 (GMI-1359 40 mg/kg IP Days 3-14, antibody 10 mg/kg IP Days 3,6,10,13)): 7.02% | percentage of Treg among tumor infiltrating cells (summary comparison) ([1]; tumors, Day 15, groups 8, 10, 12, saline group 7 3.3%): 2.9% | inhibition of anti-CXCR4 antibody binding (CXCR4): inhibits ligand binding
